The values that follow come from patent US9828375B2, “4-position substituted pyrazolopyrimidine derivative, and use thereof in drug preparation” (Guangxi Wuzhou Pharmaceuticals (Group) Co., Ltd., priority 2012, dated 2017).

Where only a bound is given, the exact number is not on record here.

For one assay, the target named is VEGFR2 (Homo sapiens, UniProt P35968). The assay can be described thus: Kinase inhibition activity test, isotope labeling (γ-33P-ATP): VEGFR2. The assay is classed as biochemical. Particulars: for IC50: ATP 90 μM, read-out: VEGFR2 IC50 value (inhibitory activity value); for Activity inhibition rate VEGFR2 (h) / inhibition at 10 µM: test compound at a concentration of 10 μM; for inhibition at 10 µM: read-out: Activity inhibition rate VEGFR2 (h). As to the method: (§1) The purpose of this experiment was to test the inhibitory activity of the compound of the invention for in vitro kinase with the isotope labeling method (the γ phosphate group on ATP was labeled). In this experiment, the in vitro activity inhibition of such kinases as FLT3, VEGFR2, FLT1, FLT4, RET, c-RAF, B-RAF, c-KIT, PDGFα, PDGFβ, FGFR2, FGFR1, EphA2, EphB2, SRC, ABL, ALK and Met was tested respectively. Staurosporine was reference molecule (or referred to as positive control). The kinase inhibition activity of the test compound was expressed by half-inhibitory concentration (IC50) or the kinase activity inhibition rate of the test compound at a concentration of 10 μM. The IC50 value could be obtained by calculating the kinase activity inhibition rate of the test compound at different concentrations.
Sequence of VEGFR2 (P35968 20-1356): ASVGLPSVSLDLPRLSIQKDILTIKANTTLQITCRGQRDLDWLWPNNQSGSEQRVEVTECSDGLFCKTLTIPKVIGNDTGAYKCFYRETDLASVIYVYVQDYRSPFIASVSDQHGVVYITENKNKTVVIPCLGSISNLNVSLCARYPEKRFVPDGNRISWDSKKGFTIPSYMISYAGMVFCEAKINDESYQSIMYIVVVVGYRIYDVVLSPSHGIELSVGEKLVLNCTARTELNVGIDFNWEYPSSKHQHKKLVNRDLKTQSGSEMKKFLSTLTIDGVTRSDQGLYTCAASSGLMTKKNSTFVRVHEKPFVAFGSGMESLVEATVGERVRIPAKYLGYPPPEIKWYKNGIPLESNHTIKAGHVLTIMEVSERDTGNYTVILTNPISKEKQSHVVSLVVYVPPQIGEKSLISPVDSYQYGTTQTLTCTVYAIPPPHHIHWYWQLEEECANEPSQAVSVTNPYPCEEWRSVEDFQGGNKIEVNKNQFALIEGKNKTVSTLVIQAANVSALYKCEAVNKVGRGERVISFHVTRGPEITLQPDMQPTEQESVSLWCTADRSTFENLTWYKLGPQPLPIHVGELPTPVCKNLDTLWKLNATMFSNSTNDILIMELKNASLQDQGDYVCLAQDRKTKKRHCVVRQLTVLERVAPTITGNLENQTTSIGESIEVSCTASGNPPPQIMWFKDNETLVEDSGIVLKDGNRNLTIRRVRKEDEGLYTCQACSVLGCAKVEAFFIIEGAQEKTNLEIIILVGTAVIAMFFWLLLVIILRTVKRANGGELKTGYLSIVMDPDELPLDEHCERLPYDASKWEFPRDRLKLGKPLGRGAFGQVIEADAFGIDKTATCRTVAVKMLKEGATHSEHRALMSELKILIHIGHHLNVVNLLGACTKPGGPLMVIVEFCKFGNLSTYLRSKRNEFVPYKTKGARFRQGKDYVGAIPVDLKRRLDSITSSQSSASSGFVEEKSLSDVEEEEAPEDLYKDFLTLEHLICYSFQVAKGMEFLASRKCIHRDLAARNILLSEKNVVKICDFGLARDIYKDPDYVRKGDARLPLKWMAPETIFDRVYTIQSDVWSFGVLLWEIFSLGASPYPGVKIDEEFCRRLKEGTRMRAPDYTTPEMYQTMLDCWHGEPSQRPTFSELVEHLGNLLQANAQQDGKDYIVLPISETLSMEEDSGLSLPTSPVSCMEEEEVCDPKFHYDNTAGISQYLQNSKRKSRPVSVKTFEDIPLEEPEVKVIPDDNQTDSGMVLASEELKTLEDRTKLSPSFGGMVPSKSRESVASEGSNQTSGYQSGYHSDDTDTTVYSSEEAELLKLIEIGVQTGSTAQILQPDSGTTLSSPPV
(§2) 20 mM 3-(N-morpholinyl)propanesulfonic acid (MOPS); 1 mM ethylenediaminetetraacetic acid (EDTA), 0.01% Brij 35 (Brij-35), 5% glycerol, 0.1% mercaptoethanol, 1 mg/mL bovine serum albumin (BSA), 10 mM manganous dichloride solution (MnCl2), 0.1 mg/mL glutamic acid/tyrosine (4:1) polypeptide (poly(Glu, Tyr)4:1), 50 μM EAIYAAPFAKKK (substrate of FLT3), 0.33 mg/mL myelin basic protein (substrate of VEGFR2), 250 μM KKKSPGEYVNIEFG (substrate of FLT1(h)), 500 μM GGEEEEYFELVKKKK (substrate of FLT4(h)), 250 μM KKKSPGEYVNIEFG (substrate of RET), 0.66 mg/mL myelin basic protein (substrate of C-RAF), 250 μM GGMEDIYFEFMGGKKK (substrate of c-Kit), 250 μM GGMEDIYFEFMGGKKK (substrate of PDGFα), 250 μM KKKSPGEYVNIEFG (substrate of FGFR1), […] GGEEEEYFELVKKKK (substrate of SRC), 50 μM EAIYAAPFAKKK (substrate of ABL), 250 μM KKKSPGEYVNIEFG (substrate of ALK), 250 μM KKKSPGEYVNIEFG (substrate of Met(h)), 10 mM magnesium acetate and γ-^33 P-ATP solution, stop buffer (3% phosphate buffer), washing buffer (75 mM phosphate solution), methanol, Filtermat A membrane, FLT3, VEGFR2, FLT3, VEGFR2, FLT1, FLT4, RET, c-RAF, B-RAF, c-KIT, PDGFRα, PDGFRβ, FGFR2, FGFR1, EphA2, EphB2, SRC, ABL, ALK, Met and other kinases, and the test compounds.
(§3) Buffers (8 mM MOPS with pH value of 7.0, 0.2 mM EDTA and 10 mM MnCl2), (5-10 mU) kinases to be tested (FLT3, VEGFR2, FLT1, FLT4, RET, c-RAF, B-RAF, c-KIT, PDGFRα, PDGFRβ, FGFR2, FGFR1, EphA2, EphB2, SRC, ABL, ALK and Met), substrates of kinases to be tested (refer to experimental materials), 10 mM magnesium acetate and γ-^33 P-ATP solution, and test compounds at different concentrations were added to a reaction tube orderly. […] Reaction was terminated with 5 μL 3% phosphate buffer finally, and 10 μL reaction solution was titrated to the Filtermat A membrane; solution was washed for 3 times with 75 mM phosphate solution with each time lasting 5 minutes, and then washed once with methanol. Finally, the Filtermat A membrane was dried, and scintillation counting was performed on the membrane, with scintillation count reflecting the phosphorylation degree of the substrates, so that the activity inhibition of kinase could be characterized.

For another assay, the target named is PDGFRα (Homo sapiens, UniProt P16234). The assay can be described thus: Kinase inhibition activity test, isotope labeling: PDGFRα. It counts as biochemical. The conditions noted are these: for Activity inhibition rate PDGFRα (h) / inhibition at 10 µM: test compound at a concentration of 10 μM; for inhibition at 10 µM: read-out: Activity inhibition rate PDGFRα (h); for IC50: ATP 120 μM, read-out: PDGFRα IC50 value (inhibitory activity value). Here is the method:
as §1, §2, §3

The test system of assay [1] is human leukemia cell line MV4-11. The assay can be described thus: In vitro tumor cell proliferation inhibition (MTT): MV4-11. It counts as cell-based. From the text:
(§4) The purpose of the experiment was to test the inhibition activity of the compounds of the invention for in vitro human tumor cell proliferation by the methyl thiazolyl tetrazolium (MTT) colorimetry.
(§5) Main reagents: RPMI-1640, fetal bovine serum, pancreatin, etc. were purchased from Gibco BRL Company (Invitrogen Corporation, USA) and IMDM medium that was purchased from American Type Culture Collection (ATCC). Methyl thiazolyl tetrazolium (MTT) and dimethyl sulfoxide (DMSO) were products from Sigma Company (USA). Pyrazolopyrimidine derivatives were composed by the inventor. During in vitro experiment, 100% DMSO was prepared into 10 mM storage solution, the solution was stored in a refrigerator at −20° C. for future use, and was diluted to the required concentration with complete culture solution before use.
(§6) Cell line and culture: Human leukemia cell line MV4-11, Jurkat, K562, human thyrophyma cell line TT, human gastric carcinoma cell line MKN-45, human malignant melanoma cell lines A375 and A875, human pancreatic carcinoma cell line panc-1, human cervical carcinoma cell line HELA, human colorectal carcinoma cell line HCT116, etc. were purchased from American type culture collection and were preserved by this laboratory. All leukemia cell lines (except MV4-11), gastric carcinoma cell lines and thyrophyma cell lines were cultured in RPMI-1640 complete medium containing 10% fetal bovine serum, 100 U/mL penicillin and 100 μg/mL streptomycin at 37° C. in 5% CO2. The remaining cell lines were cultured in DMEM complete medium containing 10% fetal bovine serum (containing 20% MV4-11 cell), 100 U/mL penicillin and 100 µg/mL streptomycin at 37° C. in 5% CO2.
(§7) Cell suspension with cell concentration of 1-2×10^4/mL was adjusted with the complete cell medium and inoculated in a 96-well plate, with each well filled with 200 μl cell suspension that was cultured overnight. On the next day, supernatant was sucked and abandoned (supernatant was sucked upon centrifugation of suspension cells), and then cells were processed with test compounds at gradient concentrations respectively. Meanwhile, a negative control group free from drug and a solvent control group with equal volume were set, and the DMSO concentration was 0.1%. Each dose group was provided with three wells and cultured at 37° C. in 5% CO2. After 72 hours, 20 μl 5 mg/mL MTT reagent was added to each well, and cultured for another 2 to 4 hours, the supernatant was abandoned; 150 μL DMSO was added to each well again, vibrated and mixed evenly for 15 minutes; the absorbance (A) values (proportional to living cell amount) were determined with a microplate reader (λ=570 nm) and averaged. […] Experiment was repeated for 3 times at least. Experimental data were expressed with means, data statistics were tested by t, and P<0.05 means that difference has a statistical significance. The cell proliferation inhibition effects of all compounds as follows are expressed by IC50 or inhibition rate.

Assay [2] deals with human gastric carcinoma cell line MKN-45. In words: In vitro tumor cell proliferation inhibition (MTT): MKN-45. The assay is classed as cell-based.
Source text: as §4, §5, §6, §7

The subject of assay [3] is human pancreatic carcinoma cell line panc-1. In words: In vitro tumor cell proliferation inhibition (MTT): panc-1. It counts as cell-based.
Source text: as §4, §5, §6, §7

The subject of assay [4] is human leukemia cell line K562. In words: In vitro tumor cell proliferation inhibition (MTT): K562. It counts as cell-based.
Source text: as §4, §5, §6, §7

A word on the IC50: it is the concentration at which inhibition is half-maximal. In general, inhibition refers to how much of the control response was suppressed.

Sequence of PDGFRα (P16234 24-1089): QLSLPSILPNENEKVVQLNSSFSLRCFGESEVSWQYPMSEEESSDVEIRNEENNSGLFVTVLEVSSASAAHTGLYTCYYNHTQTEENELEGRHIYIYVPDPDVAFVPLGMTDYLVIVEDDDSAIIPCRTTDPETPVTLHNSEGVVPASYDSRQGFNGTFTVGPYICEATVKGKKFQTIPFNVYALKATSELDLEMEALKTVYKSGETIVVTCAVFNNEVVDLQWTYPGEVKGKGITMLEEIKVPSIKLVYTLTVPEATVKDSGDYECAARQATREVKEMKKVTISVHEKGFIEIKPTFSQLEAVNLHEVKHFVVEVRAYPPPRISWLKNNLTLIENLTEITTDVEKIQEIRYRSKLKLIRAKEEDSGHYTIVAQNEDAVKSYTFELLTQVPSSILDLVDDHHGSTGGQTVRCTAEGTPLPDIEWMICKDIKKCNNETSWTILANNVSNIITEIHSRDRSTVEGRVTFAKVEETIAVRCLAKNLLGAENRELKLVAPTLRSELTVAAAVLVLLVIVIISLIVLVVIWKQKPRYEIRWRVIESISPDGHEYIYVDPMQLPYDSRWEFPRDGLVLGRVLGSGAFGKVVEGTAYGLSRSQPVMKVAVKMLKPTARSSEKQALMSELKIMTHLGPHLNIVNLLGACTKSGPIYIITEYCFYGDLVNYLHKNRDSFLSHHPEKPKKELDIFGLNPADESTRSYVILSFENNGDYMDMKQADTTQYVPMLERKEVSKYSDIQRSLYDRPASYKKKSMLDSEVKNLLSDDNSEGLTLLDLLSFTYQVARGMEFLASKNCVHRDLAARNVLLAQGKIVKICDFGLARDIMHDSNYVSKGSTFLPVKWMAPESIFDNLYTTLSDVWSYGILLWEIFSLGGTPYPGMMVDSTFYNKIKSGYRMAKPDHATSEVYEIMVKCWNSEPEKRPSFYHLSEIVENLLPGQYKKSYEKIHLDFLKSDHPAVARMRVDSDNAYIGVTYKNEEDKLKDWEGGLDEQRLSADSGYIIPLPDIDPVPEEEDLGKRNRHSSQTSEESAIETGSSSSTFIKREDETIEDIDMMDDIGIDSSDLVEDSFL

As to “1-(4-((1H-pyrazolopyrimidine-4-yl)oxy)-3-fluorophenyl)-3-(3-trifluoromethoxy)phenyl)urea [4a-8]”, the IC50 at VEGFR2 is 0.029 µM; in assay [1] (72 hours) it was 0.053 µM; in assay [2] (72 hours), 7.65 µM; in assay [3] (72 hours), 4.65 µM; in assay [4] (72 hours), below 50 µM. Further, the “Activity inhibition rate VEGFR2 (h)” value at VEGFR2 was found to be 100%. In addition, at PDGFRα, the “Activity inhibition rate PDGFRα (h)” value worked out at 64%.
Turning to “1-(4-((1H-pyrazolopyrimidine-4-yl)oxy)phenyl)-3-(methylcyclohexyl)urea [4a-20]”, the “Activity inhibition rate VEGFR2 (h)” value at VEGFR2 amounted to 64%. Besides, the “Activity inhibition rate PDGFRα (h)” value on PDGFRα amounted to 93%. Also, the IC50 was 0.363 µM in assay [1] (72 hours), below 50 µM in assay [2] (72 hours), below 50 µM in assay [3] (72 hours) and below 50 µM in assay [4] (72 hours).
For `O=C(Nc1ccc(Oc2ncnc3[nH]ncc23)cc1)Nc1ccc(C(F)(F)F)cc1` [4a-1], the 50% inhibitory concentration (IC50) was 0.03 µM at VEGFR2; 0.005 µM in assay [1] (Homo sapiens, MV4-11, 72 h); below 50 µM in assay [2] (Homo sapiens, MKN-45, 72 hours); below 50 µM in assay [3] (Homo sapiens, PANC-1, 72 hours); below 50 µM in assay [4] (Homo sapiens, K562, 72 hours). Also, the inhibition at 10 µM was determined as 100% at VEGFR2 and 63% on PDGFRα.
For the compound `O=C(Nc1ccc(Oc2ncnc3[nH]ncc23)cc1)Nc1ccc(Cl)c(C(F)(F)F)c1` [4a-2], the IC50 is 0.012 µM at VEGFR2; 0.223 µM on PDGFRα; 0.003 µM in assay [1] (72 hours); 8.23 µM in assay [2] (72 hours); below 50 µM in assay [3] (72 hours); below 50 µM in assay [4] (72 hours). At VEGFR2, the “Activity inhibition rate VEGFR2 (h)” value was determined as 100%. For the same compound, on PDGFRα, the “Activity inhibition rate PDGFRα (h)” value stood at 93%.
As to `O=C(Nc1ccc(Oc2ncnc3[nH]ncc23)cc1)Nc1cccc(C(F)(F)F)c1` [4a-6], the half-inhibitory concentration (IC50) was 0.011 µM on VEGFR2; 0.322 µM at PDGFRα; 0.004 µM in assay [1] (Homo sapiens, MV4-11, 72 h); 9.71 µM in assay [2] (Homo sapiens, MKN-45, 72 hours); below 50 µM in assay [3] (Homo sapiens, PANC-1, 72 hours); below 50 µM in assay [4] (Homo sapiens, K562, 72 hours). Besides, the inhibition at 10 µM stood at 100% at VEGFR2 and 97% on PDGFRα.
Regarding `CC(C)c1cccc(NC(=O)Nc2ccc(Oc3ncnc4[nH]ncc34)c(F)c2)c1` [4a-7, 1-(4-((1H-pyrazolopyrimidine-4-yl)oxy)-3-fluorophenyl)-3-(3-isopropylphenyl)urea], the IC50 is 0.032 µM on VEGFR2; 0.011 µM in assay [1] (72 hours); below 50 µM in assay [2] (72 hours); below 50 µM in assay [3] (72 hours); below 50 µM in assay [4] (72 hours). In addition, the “Activity inhibition rate VEGFR2 (h)” value at VEGFR2 is reported as 100%. In addition, the “Activity inhibition rate PDGFRα (h)” value on PDGFRα is listed as 89%.
Regarding `O=C(Nc1ccc(C(F)(F)F)cc1)Nc1ccc(Oc2ncnc3[nH]ncc23)c(F)c1` [4a-9, 1-(4-((1H-pyrazolopyrimidine-4-yl)oxy)-3-fluorophenyl)-3-(4-(trifluoromethyl)phenyl)urea], the 50% inhibitory concentration (IC50) on VEGFR2 amounted to 0.019 µM; in assay [1] (72 hours), 0.043 µM; in assay [2] (72 hours), 7.63 µM; in assay [3] (72 hours), 2.31 µM; in assay [4] (72 hours) it was 2.7 µM. Moreover, the “Activity inhibition rate VEGFR2 (h)” value at VEGFR2 turned out to be 100%. Also, the “Activity inhibition rate PDGFRα (h)” value at PDGFRα stood at 24%.
On to `O=C(Nc1ccc(Oc2ncnc3[nH]ncc23)c(F)c1)Nc1ccc(Cl)c(C(F)(F)F)c1` [4a-10, 1-(4-((1H-pyrazolopyrimidine-4-yl)oxy)-3-fluorophenyl)-3-(4-chloro-3-(trifluoromethyl)phenyl)urea], for which the IC50 at VEGFR2 is 0.021 µM; in assay [1] (72 hours), 0.009 µM; in assay [2] (72 hours), 5.28 µM; in assay [3] (72 hours), below 50 µM; in assay [4] (72 hours), below 50 µM. The “Activity inhibition rate VEGFR2 (h)” value on VEGFR2 came to 100%. For the same compound, the “Activity inhibition rate PDGFRα (h)” value at PDGFRα is given as 52%.
Regarding `O=C(Nc1ccc(Oc2ncnc3[nH]ncc23)cc1)Nc1ccc(N2CCOCC2)cc1` [4a-16, 1-(4-((1H-pyrazolopyrimidine-4-yl)oxy)phenyl)-3-(4-morpholinylphenyl)urea], the inhibition at 10 µM on VEGFR2 came to 91%. Also, the IC50 is 0.089 µM in assay [1] (Homo sapiens, MV4-11, 72 h); 3.22 µM in assay [2] (Homo sapiens, MKN-45, 72 hours); below 50 µM in assay [3] (Homo sapiens, PANC-1, 72 hours); below 50 µM in assay [4] (Homo sapiens, K562, 72 hours).
Consider `O=C(Nc1ccc(NC(=O)N2C=NC=C3NNC=C32)cc1)Nc1ccc(Cl)c(C(F)(F)F)c1` [4b-5, 1-(4-(1H-pyrazolopyrimidine-4-amido)phenyl)-3-(4-chloro-3-(trifluoromethyl)phenyl)urea], for which the inhibition at 10 µM at VEGFR2 was 97%; on PDGFRα it was above 30%. Further, the half-maximal inhibitory concentration (IC50) came to 0.05 µM in assay [1] (Homo sapiens, MV4-11, 72 h) and 7.64 µM in assay [2] (Homo sapiens, MKN-45, 72 hours).
On to `O=C(Nc1ccc(Sc2ncnc3[nH]ncc23)cc1)Nc1ccc(C(F)(F)F)cc1` [4c-1], for which the inhibition at 10 µM is 100% on VEGFR2 and above 50% at PDGFRα. For the same compound, the IC50 was 0.012 µM in assay [1] (Homo sapiens, MV4-11, 72 h) and below 50 µM in assay [3] (Homo sapiens, PANC-1, 72 hours).
With `O=C(Nc1ccc(Sc2ncnc3[nH]ncc23)cc1)Nc1cccc(C(F)(F)F)c1` [4c-2], the “Activity inhibition rate VEGFR2 (h)” value at VEGFR2 came out at 100%. Also, the “Activity inhibition rate PDGFRα (h)” value on PDGFRα is listed as above 50%. Besides, the IC50 in assay [1] (72 hours) was 0.039 µM; in assay [2] (72 hours) it was 8.71 µM; in assay [3] (72 hours), below 50 µM.
